Legend:
Test in all cases: kinobeads assay with mass spectrometry detection of kinases (kinase selectivity profile)
Assay type in all cases: binding
kinases (kinome) [1] = target: T1, kinases (kinome) (Homo sapiens, UniProt O75716); details: MPSK1 (Other), IPI00915837
T1 construct: determined in kinobeads assays with mass spectrometry detection of kinases as described previously; endogenous in cells; host or cells: cell lysate
From the text: (§1) The protein kinase complement of the human genome (the kinome) was described previously (Manning et al., 2002. Science 298(5600):1912-1934). Sequence accession numbers are defined by the International Protein Index (IPI) (Kersey et al., 2004. Proteomics 4(7):1985-1988).

kinases (kinome) [2] = target: T2, kinases (kinome) (Homo sapiens, UniProt P06213); details: INSR (TK), IPI00025803
T2 construct: determined in kinobeads assays with mass spectrometry detection of kinases as described previously; endogenous in cells; host or cells: cell lysate
T2 sequence (P06213 28-1382): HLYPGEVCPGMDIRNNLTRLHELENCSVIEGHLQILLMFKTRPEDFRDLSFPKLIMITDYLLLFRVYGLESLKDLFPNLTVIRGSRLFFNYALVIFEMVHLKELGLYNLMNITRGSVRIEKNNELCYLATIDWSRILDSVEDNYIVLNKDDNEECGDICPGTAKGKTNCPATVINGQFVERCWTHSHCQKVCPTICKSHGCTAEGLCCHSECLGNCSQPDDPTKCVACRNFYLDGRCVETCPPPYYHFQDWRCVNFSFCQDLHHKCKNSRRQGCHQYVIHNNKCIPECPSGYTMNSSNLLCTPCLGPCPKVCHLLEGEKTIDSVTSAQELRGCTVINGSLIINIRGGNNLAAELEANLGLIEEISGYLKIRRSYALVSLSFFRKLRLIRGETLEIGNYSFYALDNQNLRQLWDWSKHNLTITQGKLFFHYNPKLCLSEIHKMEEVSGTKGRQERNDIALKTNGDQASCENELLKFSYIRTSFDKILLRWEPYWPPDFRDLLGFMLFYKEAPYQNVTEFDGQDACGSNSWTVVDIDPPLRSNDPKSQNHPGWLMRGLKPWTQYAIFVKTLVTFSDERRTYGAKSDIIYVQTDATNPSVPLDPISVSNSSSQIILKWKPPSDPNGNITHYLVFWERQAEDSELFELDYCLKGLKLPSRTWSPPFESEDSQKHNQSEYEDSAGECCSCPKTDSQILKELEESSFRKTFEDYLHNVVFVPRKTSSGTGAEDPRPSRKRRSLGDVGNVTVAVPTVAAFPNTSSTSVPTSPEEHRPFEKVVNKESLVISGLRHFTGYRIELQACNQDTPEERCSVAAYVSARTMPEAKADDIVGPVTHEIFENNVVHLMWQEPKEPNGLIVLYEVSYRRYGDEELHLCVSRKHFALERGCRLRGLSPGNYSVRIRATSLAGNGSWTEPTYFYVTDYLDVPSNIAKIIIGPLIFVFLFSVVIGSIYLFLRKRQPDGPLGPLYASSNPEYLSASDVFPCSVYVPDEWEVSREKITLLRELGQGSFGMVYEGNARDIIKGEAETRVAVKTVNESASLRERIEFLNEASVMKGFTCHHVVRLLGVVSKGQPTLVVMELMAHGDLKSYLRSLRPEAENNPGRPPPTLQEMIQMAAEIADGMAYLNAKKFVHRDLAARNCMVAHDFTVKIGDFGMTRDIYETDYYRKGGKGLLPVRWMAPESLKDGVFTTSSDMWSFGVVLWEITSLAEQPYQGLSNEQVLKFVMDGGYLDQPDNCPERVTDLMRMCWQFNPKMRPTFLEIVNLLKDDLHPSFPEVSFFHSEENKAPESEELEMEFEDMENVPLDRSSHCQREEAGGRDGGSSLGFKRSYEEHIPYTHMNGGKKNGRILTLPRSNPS
From the text: as §1

kinases (kinome) [3] = target: T3, kinases (kinome) (Homo sapiens, UniProt P06493); details: CDC2 (CMGC), IPI00026689
T3 construct: determined in kinobeads assays with mass spectrometry detection of kinases as described previously; endogenous in cells; host or cells: cell lysate
T3 sequence (P06493 whole entry): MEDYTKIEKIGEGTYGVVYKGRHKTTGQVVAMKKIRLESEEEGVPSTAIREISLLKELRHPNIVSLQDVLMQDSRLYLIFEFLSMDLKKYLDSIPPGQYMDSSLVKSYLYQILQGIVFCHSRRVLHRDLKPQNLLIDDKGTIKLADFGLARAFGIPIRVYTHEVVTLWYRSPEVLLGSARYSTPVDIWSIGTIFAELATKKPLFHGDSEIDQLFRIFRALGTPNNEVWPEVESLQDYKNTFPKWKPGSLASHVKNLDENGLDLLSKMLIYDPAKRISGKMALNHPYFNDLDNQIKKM
From the text: as §1

kinases (kinome) [4] = target: T4, kinases (kinome) (Homo sapiens, UniProt P15735); details: PHKg2 (CAMK), IPI00012891
T4 construct: determined in kinobeads assays with mass spectrometry detection of kinases as described previously; endogenous in cells; host or cells: cell lysate
From the text: as §1

kinases (kinome) [5] = target: T5, kinases (kinome) (Homo sapiens, UniProt P29320); details: EphA3 (TK), IPI00298105
T5 construct: determined in kinobeads assays with mass spectrometry detection of kinases as described previously; endogenous in cells; host or cells: cell lysate
T5 sequence (P29320 21-983): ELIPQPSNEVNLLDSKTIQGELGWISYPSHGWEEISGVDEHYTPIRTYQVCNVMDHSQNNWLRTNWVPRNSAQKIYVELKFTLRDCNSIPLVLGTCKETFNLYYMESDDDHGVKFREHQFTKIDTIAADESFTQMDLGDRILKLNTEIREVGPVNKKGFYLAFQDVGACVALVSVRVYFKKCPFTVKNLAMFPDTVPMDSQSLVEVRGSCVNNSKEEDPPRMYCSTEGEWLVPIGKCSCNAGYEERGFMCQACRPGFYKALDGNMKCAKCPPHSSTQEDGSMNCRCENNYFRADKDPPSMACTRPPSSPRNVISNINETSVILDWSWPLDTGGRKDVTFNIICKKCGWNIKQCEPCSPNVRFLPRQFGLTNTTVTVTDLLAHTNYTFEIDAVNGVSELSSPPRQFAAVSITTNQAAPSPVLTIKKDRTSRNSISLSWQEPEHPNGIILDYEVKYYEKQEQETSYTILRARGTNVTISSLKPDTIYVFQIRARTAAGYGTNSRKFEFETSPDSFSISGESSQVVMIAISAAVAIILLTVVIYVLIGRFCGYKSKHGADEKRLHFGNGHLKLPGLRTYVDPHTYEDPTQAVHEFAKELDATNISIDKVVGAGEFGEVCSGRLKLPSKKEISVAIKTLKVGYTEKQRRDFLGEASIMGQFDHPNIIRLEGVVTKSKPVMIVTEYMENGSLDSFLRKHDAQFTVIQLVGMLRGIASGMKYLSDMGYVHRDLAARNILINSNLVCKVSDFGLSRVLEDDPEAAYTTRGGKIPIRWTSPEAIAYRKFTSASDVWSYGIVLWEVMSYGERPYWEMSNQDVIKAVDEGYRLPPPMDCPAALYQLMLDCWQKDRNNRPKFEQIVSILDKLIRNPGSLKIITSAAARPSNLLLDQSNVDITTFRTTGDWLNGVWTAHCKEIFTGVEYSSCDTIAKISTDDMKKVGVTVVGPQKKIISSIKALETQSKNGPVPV
From the text: as §1

kinases (kinome) [6] = target: T6, kinases (kinome) (Homo sapiens, UniProt P36507); details: MAP2K2 (STE), IPI00003783
T6 construct: determined in kinobeads assays with mass spectrometry detection of kinases as described previously; endogenous in cells; host or cells: cell lysate
T6 sequence (P36507 whole entry): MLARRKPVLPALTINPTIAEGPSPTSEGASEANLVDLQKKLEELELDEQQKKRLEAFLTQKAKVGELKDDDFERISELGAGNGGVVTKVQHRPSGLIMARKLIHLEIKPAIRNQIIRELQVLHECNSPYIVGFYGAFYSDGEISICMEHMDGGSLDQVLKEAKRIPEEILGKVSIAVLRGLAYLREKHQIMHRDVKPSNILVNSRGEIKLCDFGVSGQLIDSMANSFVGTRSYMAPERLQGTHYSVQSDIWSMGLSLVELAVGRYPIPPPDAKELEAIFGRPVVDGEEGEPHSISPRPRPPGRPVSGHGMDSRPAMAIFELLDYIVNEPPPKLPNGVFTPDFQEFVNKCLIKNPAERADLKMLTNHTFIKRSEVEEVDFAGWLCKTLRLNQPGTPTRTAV
From the text: as §1

kinases (kinome) [7] = target: T7, kinases (kinome) (Homo sapiens, UniProt P51812); details: RSK2 (AGC), IPI00020898
T7 construct: determined in kinobeads assays with mass spectrometry detection of kinases as described previously; endogenous in cells; host or cells: cell lysate
From the text: as §1

kinases (kinome) [8] = target: T8, kinases (kinome) (Homo sapiens, UniProt Q13164); details: Erk5 (CMGC), IPI00910923
T8 construct: determined in kinobeads assays with mass spectrometry detection of kinases as described previously; endogenous in cells; host or cells: cell lysate
From the text: as §1

kinases (kinome) [9] = target: T9, kinases (kinome) (Homo sapiens, UniProt Q13627); details: DYRK1A (CMGC), IPI00014344
T9 construct: determined in kinobeads assays with mass spectrometry detection of kinases as described previously; endogenous in cells; host or cells: cell lysate
From the text: as §1

kinases (kinome) [10] = target: T10, kinases (kinome) (Homo sapiens, UniProt Q16566); details: CaMK4 (CAMK), IPI00430411
T10 construct: determined in kinobeads assays with mass spectrometry detection of kinases as described previously; endogenous in cells; host or cells: cell lysate
T10 sequence (Q16566 1-473): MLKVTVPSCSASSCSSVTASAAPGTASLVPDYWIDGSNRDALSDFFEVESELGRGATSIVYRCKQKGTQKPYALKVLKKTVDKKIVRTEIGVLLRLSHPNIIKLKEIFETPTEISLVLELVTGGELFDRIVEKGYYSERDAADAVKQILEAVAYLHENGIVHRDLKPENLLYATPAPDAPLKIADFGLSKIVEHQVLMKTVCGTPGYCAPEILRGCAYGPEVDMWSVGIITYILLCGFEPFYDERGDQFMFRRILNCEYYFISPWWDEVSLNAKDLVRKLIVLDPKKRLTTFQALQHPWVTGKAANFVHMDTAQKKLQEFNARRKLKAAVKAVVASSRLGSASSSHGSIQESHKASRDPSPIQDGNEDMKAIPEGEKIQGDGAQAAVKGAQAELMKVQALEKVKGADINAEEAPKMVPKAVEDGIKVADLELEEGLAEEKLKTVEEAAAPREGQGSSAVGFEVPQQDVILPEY
From the text: as §1

kinases (kinome) [11] = target: T11, kinases (kinome) (Homo sapiens, UniProt Q9BZL6); details: PKD2 (CAMK), IPI00009334
T11 construct: determined in kinobeads assays with mass spectrometry detection of kinases as described previously; endogenous in cells; host or cells: cell lysate
T11 sequence (Q9BZL6 whole entry): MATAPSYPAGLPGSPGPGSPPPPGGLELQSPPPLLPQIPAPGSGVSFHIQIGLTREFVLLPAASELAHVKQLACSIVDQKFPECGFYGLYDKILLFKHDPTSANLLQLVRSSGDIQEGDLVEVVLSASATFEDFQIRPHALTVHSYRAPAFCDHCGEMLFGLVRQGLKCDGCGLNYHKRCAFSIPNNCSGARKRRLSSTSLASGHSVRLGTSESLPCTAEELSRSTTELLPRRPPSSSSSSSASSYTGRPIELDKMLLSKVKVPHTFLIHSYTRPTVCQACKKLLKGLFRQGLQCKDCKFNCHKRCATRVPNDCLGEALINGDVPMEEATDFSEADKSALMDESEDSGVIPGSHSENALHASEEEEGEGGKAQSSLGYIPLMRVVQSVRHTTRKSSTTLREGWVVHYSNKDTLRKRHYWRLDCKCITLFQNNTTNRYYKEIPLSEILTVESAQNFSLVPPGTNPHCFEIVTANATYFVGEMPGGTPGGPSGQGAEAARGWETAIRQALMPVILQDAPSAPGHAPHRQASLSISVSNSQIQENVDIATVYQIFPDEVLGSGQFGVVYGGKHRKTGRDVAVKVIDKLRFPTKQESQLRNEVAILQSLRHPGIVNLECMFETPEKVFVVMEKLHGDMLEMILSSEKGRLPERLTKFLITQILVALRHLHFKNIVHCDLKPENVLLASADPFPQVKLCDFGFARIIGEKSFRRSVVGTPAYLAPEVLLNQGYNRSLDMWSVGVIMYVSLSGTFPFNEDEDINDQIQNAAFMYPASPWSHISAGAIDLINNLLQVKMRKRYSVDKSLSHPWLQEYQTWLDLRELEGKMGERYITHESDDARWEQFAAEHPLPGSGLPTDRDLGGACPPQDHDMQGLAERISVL
From the text: as §1

kinases (kinome) [12] = target: T12, kinases (kinome) (Homo sapiens, UniProt Q9Y6M4); details: CK1g3 (CK1), IPI00218437
T12 construct: determined in kinobeads assays with mass spectrometry detection of kinases as described previously; endogenous in cells; host or cells: cell lysate
From the text: as §1

kinases (kinome) [13] = target: T13, kinases (kinome) (Homo sapiens, UniProt Q99759); details: MAP3K3 (STE), IPI00181703
T13 construct: determined in kinobeads assays with mass spectrometry detection of kinases as described previously; endogenous in cells; host or cells: cell lysate
T13 sequence (Q99759 whole entry): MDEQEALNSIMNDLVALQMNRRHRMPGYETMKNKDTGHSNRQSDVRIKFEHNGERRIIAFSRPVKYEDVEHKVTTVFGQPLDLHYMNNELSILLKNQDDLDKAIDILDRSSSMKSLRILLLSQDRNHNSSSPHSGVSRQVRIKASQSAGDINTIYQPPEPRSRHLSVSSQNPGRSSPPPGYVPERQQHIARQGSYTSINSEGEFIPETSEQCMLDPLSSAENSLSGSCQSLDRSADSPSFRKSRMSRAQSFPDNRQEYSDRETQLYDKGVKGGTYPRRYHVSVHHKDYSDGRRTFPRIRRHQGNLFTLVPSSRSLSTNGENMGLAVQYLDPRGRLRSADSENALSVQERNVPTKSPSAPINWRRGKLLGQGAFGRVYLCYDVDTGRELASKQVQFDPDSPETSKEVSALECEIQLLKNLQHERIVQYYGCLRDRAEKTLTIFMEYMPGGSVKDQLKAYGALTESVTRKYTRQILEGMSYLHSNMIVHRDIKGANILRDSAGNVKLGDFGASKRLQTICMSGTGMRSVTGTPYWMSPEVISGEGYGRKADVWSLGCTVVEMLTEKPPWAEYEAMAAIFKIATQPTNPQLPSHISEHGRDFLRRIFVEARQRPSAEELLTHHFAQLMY
From the text: as §1

kinases (kinome) [14] = target: T14, kinases (kinome) (Homo sapiens, UniProt O60674); details: JAK2 (TK), IPI00031016
T14 construct: determined in kinobeads assays with mass spectrometry detection of kinases as described previously; endogenous in cells; host or cells: cell lysate
T14 sequence (O60674 whole entry): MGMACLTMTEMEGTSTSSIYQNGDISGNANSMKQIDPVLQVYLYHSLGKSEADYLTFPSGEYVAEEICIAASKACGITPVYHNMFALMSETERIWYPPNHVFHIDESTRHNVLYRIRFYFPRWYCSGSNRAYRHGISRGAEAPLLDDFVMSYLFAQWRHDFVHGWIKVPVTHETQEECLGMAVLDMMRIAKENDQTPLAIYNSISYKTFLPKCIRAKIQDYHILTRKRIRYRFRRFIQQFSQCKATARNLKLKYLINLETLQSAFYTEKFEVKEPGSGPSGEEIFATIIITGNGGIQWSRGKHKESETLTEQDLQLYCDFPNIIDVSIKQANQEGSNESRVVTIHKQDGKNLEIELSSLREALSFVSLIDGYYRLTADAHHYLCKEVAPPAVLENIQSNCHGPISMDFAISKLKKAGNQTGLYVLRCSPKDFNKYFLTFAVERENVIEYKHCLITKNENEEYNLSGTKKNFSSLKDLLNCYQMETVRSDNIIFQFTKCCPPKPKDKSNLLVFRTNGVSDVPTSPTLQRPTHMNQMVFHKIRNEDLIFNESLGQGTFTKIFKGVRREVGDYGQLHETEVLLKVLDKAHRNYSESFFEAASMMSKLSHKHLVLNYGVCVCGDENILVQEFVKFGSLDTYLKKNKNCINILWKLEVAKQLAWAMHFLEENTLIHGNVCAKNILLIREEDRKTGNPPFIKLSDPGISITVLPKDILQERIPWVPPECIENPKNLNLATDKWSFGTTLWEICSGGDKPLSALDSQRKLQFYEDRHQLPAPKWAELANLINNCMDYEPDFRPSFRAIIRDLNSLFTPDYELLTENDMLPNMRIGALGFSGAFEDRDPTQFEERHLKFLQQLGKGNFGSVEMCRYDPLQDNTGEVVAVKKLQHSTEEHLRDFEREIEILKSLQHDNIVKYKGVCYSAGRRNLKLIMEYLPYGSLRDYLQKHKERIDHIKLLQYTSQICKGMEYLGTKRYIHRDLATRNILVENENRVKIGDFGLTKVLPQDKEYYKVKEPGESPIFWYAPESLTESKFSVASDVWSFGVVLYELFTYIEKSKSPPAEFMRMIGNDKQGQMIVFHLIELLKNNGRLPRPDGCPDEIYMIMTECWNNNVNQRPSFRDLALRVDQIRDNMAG
From the text: as §1

kinases (kinome) [15] = target: T15, kinases (kinome) (Homo sapiens, UniProt P78368); details: CK1g2 (CK1), IPI00297767
T15 construct: determined in kinobeads assays with mass spectrometry detection of kinases as described previously; endogenous in cells; host or cells: cell lysate
From the text: as §1

kinases (kinome) [16] = target: T16, kinases (kinome) (Homo sapiens, UniProt Q16513); details: PKN2 (AGC), IPI00002804
T16 construct: determined in kinobeads assays with mass spectrometry detection of kinases as described previously; endogenous in cells; host or cells: cell lysate
From the text: as §1

kinases (kinome) [17] = target: T17, kinases (kinome) (Homo sapiens, UniProt Q86TW2); details: ADCK1 (Atypical), IPI00787836
T17 construct: determined in kinobeads assays with mass spectrometry detection of kinases as described previously; endogenous in cells; host or cells: cell lysate
From the text: as §1

Measured: IC50

T1 sequence (O75716 whole entry): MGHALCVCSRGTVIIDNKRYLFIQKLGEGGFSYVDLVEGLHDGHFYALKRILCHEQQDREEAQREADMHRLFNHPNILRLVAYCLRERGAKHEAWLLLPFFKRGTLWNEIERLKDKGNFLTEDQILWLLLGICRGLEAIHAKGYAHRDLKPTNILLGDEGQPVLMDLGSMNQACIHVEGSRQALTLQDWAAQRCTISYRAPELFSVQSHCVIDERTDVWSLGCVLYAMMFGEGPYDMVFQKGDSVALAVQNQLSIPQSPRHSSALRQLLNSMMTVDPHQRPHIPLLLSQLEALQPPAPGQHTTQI

C[C@H]1COCCN1c1nc(-c2ccc(NC(=O)NC3CC3)cc2)cc(-c2ccccc2S(C)(=O)=O)n1 [Example 4, (S)-1-cyclopropyl-3-(4-(2-(3-methylmorpholino)-6-(2-(methylsulfonyl)phenyl)pyrimidin-4-yl)phenyl)urea]
not listed: kinases (kinome) [13] | kinases (kinome) [14] | kinases (kinome) [15] | kinases (kinome) [16] | kinases (kinome) [17]
> 10 µM: all other assays above

C[C@H]1COCCN1c1cc(-c2ccccc2S(C)(=O)=O)nc(-c2ccc(NC(=O)NC3CC3)cc2)n1 [Example 6, (S)-1-cyclopropyl-3-(4-(4-(3-methylmorpholino)-6-(2-(methylsulfonyl)phenyl)pyrimidin-2-yl)phenyl)urea]
> 10 µM: kinases (kinome) [1] | kinases (kinome) [10]

C[C@H]1COCCN1c1nc(-c2ccc(NC(=O)N[C@H]3CCC[C@@H]3O)cc2)cc(-c2cc(F)ccc2S(C)(=O)=O)n1 [Example 76, 1-(4-(6-(5-fluoro-2-(methylsulfonyl)phenyl)-2-((S)-3-methylmorpholino)pyrimidin-4-yl)phenyl)-3-((1S,2S)-2-hydroxycyclopentyl)urea]
> 10 µM: kinases (kinome) [1] | kinases (kinome) [3] | kinases (kinome) [6] | kinases (kinome) [13]

C[C@H]1COCCN1c1nc(-c2ccc(NC(=O)NC3CC3)cc2)cc(-c2cccnc2S(C)(=O)=O)n1 [Example 46, (S)-1-cyclopropyl-3-(4-(2-(3-methylmorpholino)-6-(2-(methylsulfonyl)pyridin-3-yl)pyrimidin-4-yl)phenyl)urea]
> 10 µM: kinases (kinome) [14] | kinases (kinome) [3] | kinases (kinome) [5] | kinases (kinome) [6] | kinases (kinome) [15]

C[C@H]1COCCN1c1cc(-c2ccccn2)nc(-c2ccc(NC(=O)NCCO)cc2)n1 [Example 43, (S)-1-(2-hydroxyethyl)-3-(4-(4-(3-methylmorpholino)-6-(pyridin-2-yl)pyrimidin-2-yl)phenyl)urea]
> 10 µM: kinases (kinome) [5] | kinases (kinome) [6] | kinases (kinome) [16] | kinases (kinome) [10]

C[C@H]1COCCN1c1nc(-c2ccc(NC(=O)NC3CC3)cc2)cc(-c2cc(F)ccc2S(C)(=O)=O)n1 [Example 40, (S)-1-cyclopropyl-3-(4-(6-(5-fluoro-2-(methylsulfonyl)phenyl)-2-(3-methylmorpholino)pyrimidin-4-yl)phenyl)urea]
not listed: kinases (kinome) [1] | kinases (kinome) [8] | kinases (kinome) [9] | kinases (kinome) [12] | kinases (kinome) [15]
> 10 µM: all other assays above

CCNC(=O)Nc1ccc(-c2cc(-c3ccccc3C#N)nc(N3CCOC[C@@H]3C)n2)cc1 [Example 8, (S)-1-(4-(6-(2-cyanophenyl)-2-(3-methylmorpholino)pyrimidin-4-yl)phenyl)-3-ethylurea]
> 10 µM: kinases (kinome) [5] | kinases (kinome) [10] | kinases (kinome) [12]

— US9249129B2, “Morpholino substituted urea derivatives as mTOR inhibitors” (CELLZOME LIMITED, priority 2010, dated 2016)
